Here are results for 21 compounds from ChEMBL document CHEMBL5131403, “Synthesis and structure-activity relationship studies of 1,5-isomers of triazole-pyrrolopyrimidine as selective Janus kinase 1 (JAK1) inhibitors” (Bioorg Med Chem Lett, 2022).

For assay [1], the target named is T1, Tyrosine-protein kinase JAK3 (Homo sapiens) (UniProt P52333).
T1 sequence (whole entry): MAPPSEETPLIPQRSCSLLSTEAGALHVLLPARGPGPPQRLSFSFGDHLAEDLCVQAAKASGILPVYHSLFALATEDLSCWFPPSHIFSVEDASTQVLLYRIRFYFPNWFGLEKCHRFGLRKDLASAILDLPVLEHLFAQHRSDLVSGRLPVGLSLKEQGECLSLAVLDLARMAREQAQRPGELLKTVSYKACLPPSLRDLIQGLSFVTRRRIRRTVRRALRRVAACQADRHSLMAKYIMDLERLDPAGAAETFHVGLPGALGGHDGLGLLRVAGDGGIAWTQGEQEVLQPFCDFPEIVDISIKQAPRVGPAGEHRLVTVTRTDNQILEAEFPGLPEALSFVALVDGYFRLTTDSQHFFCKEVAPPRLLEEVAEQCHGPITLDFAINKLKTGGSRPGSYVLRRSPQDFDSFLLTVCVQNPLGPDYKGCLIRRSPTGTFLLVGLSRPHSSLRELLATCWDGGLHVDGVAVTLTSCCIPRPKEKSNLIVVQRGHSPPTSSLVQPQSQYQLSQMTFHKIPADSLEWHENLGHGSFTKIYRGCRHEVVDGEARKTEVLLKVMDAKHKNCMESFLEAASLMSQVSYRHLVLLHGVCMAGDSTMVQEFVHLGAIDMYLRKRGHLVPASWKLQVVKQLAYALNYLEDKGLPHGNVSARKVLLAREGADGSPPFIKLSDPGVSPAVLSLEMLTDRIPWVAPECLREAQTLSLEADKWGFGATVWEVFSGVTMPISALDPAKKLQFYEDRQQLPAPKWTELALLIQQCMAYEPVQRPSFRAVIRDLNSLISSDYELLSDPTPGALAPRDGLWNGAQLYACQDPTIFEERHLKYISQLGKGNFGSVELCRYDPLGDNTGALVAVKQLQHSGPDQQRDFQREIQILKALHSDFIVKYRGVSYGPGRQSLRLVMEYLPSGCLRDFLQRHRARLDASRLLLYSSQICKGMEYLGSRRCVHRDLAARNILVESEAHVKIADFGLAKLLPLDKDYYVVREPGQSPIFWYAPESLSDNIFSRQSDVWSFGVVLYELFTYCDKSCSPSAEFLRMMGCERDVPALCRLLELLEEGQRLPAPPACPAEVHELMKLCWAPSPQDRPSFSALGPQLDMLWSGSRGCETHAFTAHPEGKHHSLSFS
As to the kind of experiment: Inhibition of JAK3 (unknown origin) at 1 uM by biochemical assay relative to control.

Assay [2] has as its target T2, Tyrosine-protein kinase JAK1 (Homo sapiens, UniProt P23458). Put plainly: Inhibition of JAK1 (unknown origin) at 1 uM by biochemical assay relative to control.
In assay [3] the target is T3, Tyrosine-protein kinase JAK2 (Homo sapiens, UniProt O60674). Put plainly: Inhibition of JAK2 (unknown origin) at 1 uM by biochemical assay relative to control.
The species named for assay [4] is Homo sapiens. As to the kind of experiment: Selectivity index, ratio of IC50 for inhibition of JAK2 (unknown origin) to IC50 for inhibition of JAK1 (unknown origin).
In assay [5] the target is Non-receptor tyrosine-protein kinase TYK2 (Homo sapiens) (UniProt P29597). Put plainly: Inhibition of TYK2 (unknown origin) at 1 uM by biochemical assay relative to control.
Assay [6] addresses T3, Tyrosine-protein kinase JAK2. As to the kind of experiment: Inhibition of JAK2 (unknown origin) by biochemical assay.
For assay [7], the target named is T2, Tyrosine-protein kinase JAK1. Put plainly: Inhibition of JAK1 (unknown origin) by biochemical assay.
Assay [8] is filed under the species Homo sapiens. As to the kind of experiment: Selectivity index, ratio of inhibition of JAK1 (unknown origin) to inhibition of JAK2 (unknown origin).
For assay [9], the species on record is Homo sapiens. As to the kind of experiment: Selectivity index, ratio of inhibition of JAK1 (unknown origin) to inhibition of JAK3 (unknown origin).

pIC50: −log10 of the molar value.

T3 sequence (O60674 whole entry): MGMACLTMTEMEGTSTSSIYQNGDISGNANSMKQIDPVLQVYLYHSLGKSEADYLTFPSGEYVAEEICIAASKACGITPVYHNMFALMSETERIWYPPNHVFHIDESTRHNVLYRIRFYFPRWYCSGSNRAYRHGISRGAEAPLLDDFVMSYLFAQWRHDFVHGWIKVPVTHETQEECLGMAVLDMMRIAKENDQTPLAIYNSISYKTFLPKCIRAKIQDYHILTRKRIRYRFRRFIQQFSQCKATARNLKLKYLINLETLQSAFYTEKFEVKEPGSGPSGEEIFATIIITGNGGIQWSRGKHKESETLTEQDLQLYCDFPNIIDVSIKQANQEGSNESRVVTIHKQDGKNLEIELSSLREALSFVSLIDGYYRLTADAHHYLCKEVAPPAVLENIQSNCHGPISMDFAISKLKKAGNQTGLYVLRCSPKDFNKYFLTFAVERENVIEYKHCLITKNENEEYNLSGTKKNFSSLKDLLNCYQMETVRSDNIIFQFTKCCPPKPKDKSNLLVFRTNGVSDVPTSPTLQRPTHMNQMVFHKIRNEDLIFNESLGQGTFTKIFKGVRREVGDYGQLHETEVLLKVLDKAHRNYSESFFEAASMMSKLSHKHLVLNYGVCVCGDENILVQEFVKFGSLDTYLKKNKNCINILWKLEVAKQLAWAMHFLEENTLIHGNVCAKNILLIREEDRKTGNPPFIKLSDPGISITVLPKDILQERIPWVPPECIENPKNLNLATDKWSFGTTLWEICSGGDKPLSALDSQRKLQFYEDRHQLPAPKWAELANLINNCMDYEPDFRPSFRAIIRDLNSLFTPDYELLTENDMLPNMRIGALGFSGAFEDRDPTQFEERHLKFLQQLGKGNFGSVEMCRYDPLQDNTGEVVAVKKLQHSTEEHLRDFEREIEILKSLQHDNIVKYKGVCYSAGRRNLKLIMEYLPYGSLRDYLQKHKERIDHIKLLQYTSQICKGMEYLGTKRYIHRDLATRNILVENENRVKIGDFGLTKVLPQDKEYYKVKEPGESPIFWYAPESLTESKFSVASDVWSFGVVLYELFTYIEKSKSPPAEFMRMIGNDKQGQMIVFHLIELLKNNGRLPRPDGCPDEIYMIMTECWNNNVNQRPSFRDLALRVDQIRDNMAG
T2 sequence (P23458 whole entry): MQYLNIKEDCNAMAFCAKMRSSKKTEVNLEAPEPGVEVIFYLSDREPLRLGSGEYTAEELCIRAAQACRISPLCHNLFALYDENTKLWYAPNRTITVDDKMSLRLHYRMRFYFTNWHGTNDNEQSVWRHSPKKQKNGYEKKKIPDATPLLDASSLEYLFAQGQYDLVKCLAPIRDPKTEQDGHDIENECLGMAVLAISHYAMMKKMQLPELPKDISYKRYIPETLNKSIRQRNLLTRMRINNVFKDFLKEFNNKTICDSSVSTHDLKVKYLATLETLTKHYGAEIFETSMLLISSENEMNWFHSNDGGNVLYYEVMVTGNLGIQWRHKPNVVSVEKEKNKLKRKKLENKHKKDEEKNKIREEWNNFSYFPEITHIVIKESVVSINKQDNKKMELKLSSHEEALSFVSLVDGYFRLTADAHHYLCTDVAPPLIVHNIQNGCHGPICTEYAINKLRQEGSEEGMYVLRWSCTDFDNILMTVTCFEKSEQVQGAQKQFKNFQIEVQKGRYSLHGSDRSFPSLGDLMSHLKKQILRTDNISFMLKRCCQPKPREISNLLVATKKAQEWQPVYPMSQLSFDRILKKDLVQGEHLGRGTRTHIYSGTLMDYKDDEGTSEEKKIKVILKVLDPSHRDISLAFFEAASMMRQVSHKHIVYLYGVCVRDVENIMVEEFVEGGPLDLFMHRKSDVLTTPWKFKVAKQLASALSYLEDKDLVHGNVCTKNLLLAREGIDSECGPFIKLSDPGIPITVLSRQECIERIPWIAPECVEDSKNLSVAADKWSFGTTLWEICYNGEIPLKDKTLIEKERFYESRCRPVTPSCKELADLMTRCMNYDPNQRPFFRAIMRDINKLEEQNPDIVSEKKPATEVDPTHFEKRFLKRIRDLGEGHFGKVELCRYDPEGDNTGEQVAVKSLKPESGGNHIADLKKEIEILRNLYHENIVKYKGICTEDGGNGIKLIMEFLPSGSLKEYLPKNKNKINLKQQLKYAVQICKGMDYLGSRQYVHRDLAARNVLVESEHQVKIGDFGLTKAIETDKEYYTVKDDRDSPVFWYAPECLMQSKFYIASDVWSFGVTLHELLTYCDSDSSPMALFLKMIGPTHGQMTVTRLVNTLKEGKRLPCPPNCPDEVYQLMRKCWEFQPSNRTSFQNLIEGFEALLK
Chain of Non-receptor tyrosine-protein kinase TYK2 (Homo sapiens) (P29597 whole entry): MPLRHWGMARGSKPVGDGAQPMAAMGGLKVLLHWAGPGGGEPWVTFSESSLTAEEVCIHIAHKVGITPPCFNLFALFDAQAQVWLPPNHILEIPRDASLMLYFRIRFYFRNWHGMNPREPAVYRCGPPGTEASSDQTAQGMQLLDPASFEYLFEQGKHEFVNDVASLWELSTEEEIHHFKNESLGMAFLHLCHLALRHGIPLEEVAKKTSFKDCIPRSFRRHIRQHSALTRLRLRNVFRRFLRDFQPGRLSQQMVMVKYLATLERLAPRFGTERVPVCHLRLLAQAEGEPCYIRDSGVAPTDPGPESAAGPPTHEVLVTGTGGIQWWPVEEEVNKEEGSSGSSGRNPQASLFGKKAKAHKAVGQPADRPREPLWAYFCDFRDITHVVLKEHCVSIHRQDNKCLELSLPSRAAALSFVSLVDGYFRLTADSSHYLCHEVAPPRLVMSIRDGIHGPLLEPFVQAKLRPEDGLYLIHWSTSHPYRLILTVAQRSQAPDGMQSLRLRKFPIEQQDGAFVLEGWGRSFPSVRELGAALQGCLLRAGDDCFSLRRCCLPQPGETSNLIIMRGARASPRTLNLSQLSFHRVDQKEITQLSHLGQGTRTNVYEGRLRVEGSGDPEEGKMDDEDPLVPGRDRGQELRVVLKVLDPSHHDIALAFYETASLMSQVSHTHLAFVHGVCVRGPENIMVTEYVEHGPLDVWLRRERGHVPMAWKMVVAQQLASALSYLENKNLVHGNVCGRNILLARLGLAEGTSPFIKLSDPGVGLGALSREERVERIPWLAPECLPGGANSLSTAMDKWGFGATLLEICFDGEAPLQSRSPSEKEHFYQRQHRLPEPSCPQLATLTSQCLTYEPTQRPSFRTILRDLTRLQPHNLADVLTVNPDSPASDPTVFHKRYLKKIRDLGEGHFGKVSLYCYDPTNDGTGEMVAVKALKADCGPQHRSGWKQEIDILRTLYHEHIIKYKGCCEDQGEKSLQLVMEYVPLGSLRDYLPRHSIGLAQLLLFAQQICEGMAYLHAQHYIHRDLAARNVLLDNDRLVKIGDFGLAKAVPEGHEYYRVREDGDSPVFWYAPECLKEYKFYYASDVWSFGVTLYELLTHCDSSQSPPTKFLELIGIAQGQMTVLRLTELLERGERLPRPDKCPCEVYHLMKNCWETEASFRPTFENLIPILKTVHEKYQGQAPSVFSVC

Turning to `Cc1c(-c2ncnc3[nH]ccc23)nnn1CCc1ccccc1`, the inhibition in assay [1] turned out to be 13.3%; in assay [2], 12.5%; in [3], 18.7%.
`Cc1c(-c2ncnc3[nH]ccc23)nnn1Cc1ccc(I)cc1`: the inhibition in assay [1] was found to be 20.3%; in [2], 94%; in assay [3], 54%; in assay [5], 41.3%. Also, the Ratio IC50 in the assay filed under Homo sapiens [4] is 12. Also, the pIC50 in [6] is 6.08; in assay [7], 7.14.
As for `Cc1c(-c2ncnc3[nH]ccc23)nnn1Cc1ccc(C(F)(F)F)cc1`, the inhibition in assay [1] is -8.7%; in assay [2], 86.7%; in assay [3] it was 32.7%.
Consider `Cc1c(-c2ncnc3[nH]ccc23)nnn1Cc1ccccc1OC(F)(F)F`, for which the inhibition in assay [1] amounted to 20.3%; in assay [2] it was 21.6%; in assay [3], 11.6%.
As for `Cc1c(-c2ncnc3[nH]ccc23)nnn1Cc1ccc(C#N)cc1`, the inhibition in [1] was 7.3%; in assay [2], 69.3%; in assay [3], 15%.
The corresponding values for `Cc1c(-c2ncnc3[nH]ccc23)nnn1CCc1ccc(OC(F)(F)F)cc1` are 20.3%, 17.3% and 3.7%.
For the compound `Cc1c(-c2ncnc3[nH]ccc23)nnn1Cc1ccc(Cl)cc1`, the inhibition was determined as 36% in [1], 92% in [2], 50% in [3] and 67% in assay [5]. Further, the Ratio IC50 in the assay filed under Homo sapiens [4] came out at 9. Also, the results for the pIC50 in assay [6] and in assay [7] were 6.02 and 6.97, respectively.
In the case of `Cc1c(-c2ncnc3[nH]ccc23)nnn1Cc1ccc(C(C)(C)C)cc1`, the inhibition in assay [1] came to 3%; in assay [2] it was 21.6%; in assay [3] it was 15%.
For `Cc1c(-c2ncnc3[nH]ccc23)nnn1CCc1ccc(C(F)(F)F)cc1` the same measures were 35%, 32.7% and 8.7%.
Regarding `COc1ccc(Cn2nnc(-c3ncnc4[nH]ccc34)c2C)cc1`, the values for the inhibition in assay [1], in assay [2] and in [3] were 5%, 51% and 3%, respectively. The results for the Selectivity Index in the assay listed under Homo sapiens [8] and in the assay filed under Homo sapiens [9] were 17 and 10.2, respectively.
As to `Cc1c(-c2ncnc3[nH]ccc23)nnn1CCCc1ccccc1`, the inhibition in [1] was 11.3%; in [2] it was 48%; in assay [3] it was 10.7%. Moreover, the Selectivity Index amounted to 5 in the assay filed under Homo sapiens [8] and 12.3 in the assay listed under Homo sapiens [9].
In the case of `Cc1c(-c2ncnc3[nH]ccc23)nnn1Cc1ccccc1`, the figures for the inhibition in assay [1], in assay [2] and in assay [3] were -9%, 28% and 14%, respectively.
Take `Cc1c(-c2ncnc3[nH]ccc23)nnn1CCCc1ccc(I)cc1`: the inhibition is 52% in [1], 61.7% in assay [2] and 49.7% in assay [3].
In the case of `Cc1c(-c2ncnc3[nH]ccc23)nnn1Cc1cccc(OC(F)(F)F)c1`, the inhibition in [1] came to 0%; in [2], 19.3%.
As for `Cc1c(-c2ncnc3[nH]ccc23)nnn1Cc1ccc(OC(F)(F)F)cc1`, the inhibition in assay [1] was -3.7%; in assay [2], 69.5%; in [3] it was 13%.
For `Cc1c(-c2ncnc3[nH]ccc23)nnn1Cc1ccc(S(C)(=O)=O)cc1`, the inhibition amounted to 20.6% in assay [1], 76.6% in assay [2], 8% in [3] and 2.7% in assay [5]. For the same compound, the negative-log IC50 (pIC50) was less than 5.00 in [6] and 6.41 in assay [7].
On to `Cc1c(-c2ncnc3[nH]ccc23)nnn1CCc1ccc(I)cc1`, for which the inhibition in assay [2] was 54.7%; in [3], 19.7%.
Consider `Cc1c(-c2ncnc3[nH]ccc23)nnn1Cc1ccc(F)cc1`, for which the inhibition worked out at 14% in [1], 75% in [2] and 39% in assay [3].
Consider `Cc1ccc(Cn2nnc(-c3ncnc4[nH]ccc34)c2C)cc1`, for which the inhibition stood at 6% in assay [1], 74% in [2] and 10% in assay [3]. Further, the Selectivity Index in the assay filed under Homo sapiens [8] worked out at 7.4; in the assay listed under Homo sapiens [9], 12.3.
Regarding `Cc1ccc(CCn2nnc(-c3ncnc4[nH]ccc34)c2C)cc1`, the values for the inhibition in [1] and in assay [2] were 4% and 12.3%, respectively.
Consider `Cc1c(-c2ncnc3[nH]ccc23)nnn1Cc1ccc(Br)cc1`, for which the inhibition was 30% in assay [1], 94% in assay [2], 49.3% in [3] and 61.6% in [5]. The Ratio IC50 in the assay filed under Homo sapiens [4] is 8. The pIC50 in assay [6] was 6.11; in assay [7], 7.01.

Usually inhibition stands for the drop in the measured response relative to a control, in per cent. What is called pIC50 is the IC50 on a negative log10 scale, so that one unit is a factor of ten. A higher pIC50 goes with a low IC50.
